Data published in patent US20240285497A1, “METHOD FOR EVALUATING AN ABILITY OF A TEST SAMPLE TO TRIGGER A FOREIGN BODY REACTION IN THE SKIN, A METHOD FOR SCREENING A SUBSTANCE HAVING AN ABILITY TO INHIBIT A FOREIGN BODY REACTION IN THE SKIN, AND AN AGENT FOR INHIBITING A FOREIGN BODY REACTION IN THE SKIN” (priority 2021, published 2024).

How the values were obtained:
artemin mRNA = test: Artemin mRNA expression in HaCaT cells contacted with FICZ, quantitative PCR; format: cell-based, human; conditions: 24 hours; for expression level of artemin mRNA compared to cells without FICZ: no Fraglide-1
Experimental: First, HaCaT cells (CLI; Catalogue No.: 300493) were suspended in a DMEM medium at the density of 1×10^5 cell/mL, and 100 μL of the thus obtained suspension was added to each well of white 96 well plates (Thermo Fisher Scientific, MA, U.S.A.; Catalogue No.: 136102) so that the number of the cells in each well was 10,000 cells/well. In accordance with a conventional method, the cells were incubated at 37° C. for 24 hours in the presence of 5% CO2. Thereafter, the DMEM medium was removed, and 100 μL of a new DMEM medium containing FICZ at a predetermined concentration (i.e., 5 nM, 50 nM, 500 nM, and 5,000 nM) was added, followed by further incubation for 24 hours at 37° C. and 5% CO2. Meanwhile, negative controls were prepared by adding 100 μL of a DMEM medium containing no FICZ instead of the DMEM medium containing FICZ, which were also incubated for 24 hours at 37° C. and 5% CO2.
After the above-described incubation for 24 hours, total RNA was extracted and cDNA was prepared using a PCR kit “SuperPrep II Cell Lysis & RT Kit for qPCR” (Catalogue No.: SCQ-401) manufactured by Toyobo Co., Ltd. (Osaka, Japan) in accordance with a method described in the manual attached to the kit. Briefly, after the above-described incubation for 24 hours, cell culture medium was removed from each well and the cells were washed with PBS (Phosphate-buffered saline). Thereafter, each well was added with 10 μL of a lysis reagent, which was prepared by mixing 58.7 μL of “Lysis solution”, 0.3 μL of “gDNA Remover” and 1 μL of “RNase Inhibitor” attached to the above PCR kit. The cell culture plate was shaken for about 30 seconds, and allowed to stand at room temperature for 5 minutes, to obtain a cell lysate containing total RNA that can be used as a template for reverse transcription reaction. Herein, “Lysis Solution” was a cell lysis agent to lyse cells; “gDNA remover” was a reagent containing DNase I that degrades genome DNA; and “RNase Inhibitor” was a reagent to inhibit degradation of RNA by cellular components such as RNase, etc.
Next, cDNA was synthesized from the extracted RNA by reverse transcription. Firstly, a master mix for reverse transcription reaction was prepared by mixing 8 μL of “5×RT Master Mix” and 24 μL of “Nuclease-free water”, which were attached to the above PCR kit “SuperPrep II Cell Lysis & RT Kit for qPCR” manufactured by Toyobo Co., Ltd. (Osaka, Japan). Preparation of the master mix for reverse transcription reaction was carried out on ice. In a PCR tube, 32 μL of the obtained master mix was dispensed and then 8 μL of the above cell lysate present in each well was added to make a total volume 40 μL, which was used for the following reverse transcription reaction. The reverse transcription reaction was carried out under the conditions of 37° C. for 15 mins, 50° C. for 5 mins, and 98° C. for 5 mins. The thus obtained cDNA solution was added with 80 μL of sterile water and then frozen at −20° C. for storage.
Quantitative PCR was carried out by using THUNDERBIRD Next SYBR qPCR Mix (Toyobo Co., Ltd., Osaka, Japan; Catalogue No. QPX-201) and StepOne Real-Time PCR System (Thermo Fisher Scientific, MA, USA). […] The reaction solution was used for quantitative PCR. Based on Ct (cycle threshold) value obtained by quantitative PCR, an amount of mRNA of each target gene was obtained. […]

HaCaT cells = test: Safety evaluation: cell viability of HaCaT cells by WST-1 method; format: cell-based, human; conditions: 24 hours
Experimental: The safety of Fraglide-1 was examined by a viable cell counting method using a water-soluble tetrazolium salt (WST-1). Specifically, HaCaT cells were suspended in DMEM medium at the concentration of 1×10^5 cells/mL. The obtained cell suspension was seeded in a white 96-well plate (ThermoFisher Scientific; Catalogue No. 136102) in an amount of 100 μL per well so that the number of cells per well was 10,000 cells/well. After 24 hours incubation at 37° C. and 5% CO2 in accordance with a conventional method, DMEM medium was removed and then either 100 μL of DMEM medium containing Fraglide-1 at a predetermined concentration or, as a control, 100 μL of DMEM medium not containing Fraglide-1 was added, followed by further incubation for 24 hours at 37° C. and 5% CO2. After the incubation for 24 hours, the number of viable cells was measured by using a premix reagent containing WST-1 (“Premix WST-1 Cell Proliferation Assay System”, Catalogue No. MK400, Takara Bio Inc., Shiga, Japan) in accordance with the procedure described in Experiment 1-2. The results shown in FIG. 16 are the mean of values obtained from three independent experiments, and the error bars represent standard error (SE).

Compound | expression level of artemin mRNA compared to cells without FICZ (artemin mRNA; HaCaT cells, 500 nM FICZ) | expression level of artemin mRNA compared to cells without FICZ (artemin mRNA; HaCaT cells, 5,000 nM FICZ) | concentration necessary to observe a significant increase in the expression level of artemin mRNA (artemin mRNA; HaCaT cells) | change in expression level of artemin mRNA (artemin mRNA; HaCaT cells, FICZ 50 nM or lower) | expression level of artemin mRNA, dependence on concentration (artemin mRNA; HaCaT cells, FICZ 5-5,000 nM) | cell viability (HaCaT cells; 500 μM, HaCaT cells) | CC50 (HaCaT cells; read-out: LC50 (Median Lethal Concentration) against HaCaT cells)
6-formylindolo[3,2-b] carbazole [FICZ] | about 3.0 fold | ~3.7 fold | at least 500 nM | no change was observed | increased along with the concentration of FICZ | – | –
O=C1C=C(c2ccccc2)C(O)O1 (stereo not shown) [Fraglide-1, 5-hydroxy-4-phenyl-2(5H)butenolide] | – | – | – | – | – | more than 50% | > 500 µM
